Source: patent US8222278B2, “Treatment of attention-deficit/hyperactivity disorder” (Abbott Laboratories, priority 2008, dated 2012)
Like-named read-outs stand apart in the source and are kept apart here.

What was measured:
adults with ADHD = experiment: Study A: weight and vital signs; type: in vivo, human; settings: final evaluation (LOCF)
Description: The treatment group differences in vital signs were analyzed using a Grizzle Model similar to the model used for the efficacy analyses with the exclusion of period-specific baselines.

[1] = Steady state pharmacokinetics of ABT-894 after multiple oral doses; type: in vivo, human; settings: for Cave / Cmin / Cmax / AUC: multiple doses, steady state; for Tmax: QD or BID
Description: Steady state pharmacokinetic parameters of ABT-894 were determined in randomized, double-blind, placebo-controlled, parallel-design or crossover-design studies conducted with ABT-894. In these studies ABT-894 or matching placebo was administered orally either once daily (QD) or twice daily (BID) to subjects and serial blood samples were collected in order to determine ABT-894 plasma concentrations and pharmacokinetic parameters.
As used herein, Cmax refers to peak plasma concentration of a therapeutic agent, in this case ABT-894, under steady state conditions.
As used herein, Cave refers to average plasma concentration of a therapeutic agent. in this case ABT-894, under steady state conditions.
As used herein, Cmin refers to the minimum plasma concentration of a therapeutic agent, in this case ABT-894, under steady state conditions.
As used herein. Tmax refers to the time required to reach peak concentration.
As used herein, AUC12 refers to the area under the curve determined for 12 hours.
As used herein. AUC24 refers to the area under the curve determined for 24 hours.

Clc1cc(N2C[C@@H]3CN[C@@H]3C2)cnc1Cl [ABT-894, 3-(5,6-Dichloro-pyridin-3-yl)-1S,5S-3,6-diazabicyclo[3.2.0]heptane]
Diastolic BP, mean difference from placebo (adults with ADHD; ABT-894 1 mg QD): 0.28 mm Hg
Pulse, mean difference from placebo (adults with ADHD; ABT-894 1 mg QD): −0.24 bpm
Systolic BP, mean difference from placebo (adults with ADHD; ABT-894 1 mg QD): 1.36 mm Hg
Weight, mean difference from placebo (adults with ADHD; ABT-894 1 mg QD): 0.48 kg
Diastolic BP, mean difference from placebo (adults with ADHD; ABT-894 2 mg QD): 0.62 mm Hg
Pulse, mean difference from placebo (adults with ADHD; ABT-894 2 mg QD): 0.42 bpm
Systolic BP, mean difference from placebo (adults with ADHD; ABT-894 2 mg QD): 1.07 mm Hg
Weight, mean difference from placebo (adults with ADHD; ABT-894 2 mg QD): 0.09 kg
Diastolic BP, mean difference from placebo (adults with ADHD; ABT-894 4 mg BID): −2.21 mm Hg
Pulse, mean difference from placebo (adults with ADHD; ABT-894 4 mg BID): 0.98 bpm
Systolic BP, mean difference from placebo (adults with ADHD; ABT-894 4 mg BID): −0.48 mm Hg
Weight, mean difference from placebo (adults with ADHD; ABT-894 4 mg BID): -0.08 kg
Diastolic BP, mean difference from placebo (adults with ADHD; ABT-894 4 mg QD): 0.23 mm Hg
Pulse, mean difference from placebo (adults with ADHD; ABT-894 4 mg QD): 3.14 bpm
Systolic BP, mean difference from placebo (adults with ADHD; ABT-894 4 mg QD): −0.08 mm Hg
Weight, mean difference from placebo (adults with ADHD; ABT-894 4 mg QD): 0.04 kg
Cave ([1]; 2 mg QD, plasma): about 2 ng/mL
Cmin ([1]; 2 mg QD, plasma): about 0.3 ng/mL
Cave ([1]; 4 mg BID, plasma): 6 to 10 ng/mL
Cmin ([1]; 4 mg BID, plasma): 2 to 4 ng/mL
Cmax ([1]; human, oral, 2 mg QD, plasma): ~5 ng/mL
AUC ([1]; human, oral, 2 mg QD, plasma, read-out: AUC24): ~46 ng·h/mL
Cmax ([1]; human, oral, 4 mg BID, plasma): 11 to 15 ng/mL
AUC ([1]; human, oral, 4 mg BID, plasma, read-out: AUC12): 72 to 114 ng·h/mL
Tmax ([1]; human, plasma, po, read-out: Tmax): 2 to 4 h
Tmax ([1]; oral): 2 to 3 h
